Results taken from patent US20060030608A1, “Anti aromatase compounds pharmaceutical compositions and uses thereof” (Boehringer Ingelheim Pharmaceuticals, Inc., priority 2004, published 2006).

Target: T1, recombinant human aromatase (CYP19) (Homo sapiens, UniProt P11511)
T1 construct: purchased GENTEST 456260; host or cells: baculovirus/insect cells
T1 sequence (P11511 1-503): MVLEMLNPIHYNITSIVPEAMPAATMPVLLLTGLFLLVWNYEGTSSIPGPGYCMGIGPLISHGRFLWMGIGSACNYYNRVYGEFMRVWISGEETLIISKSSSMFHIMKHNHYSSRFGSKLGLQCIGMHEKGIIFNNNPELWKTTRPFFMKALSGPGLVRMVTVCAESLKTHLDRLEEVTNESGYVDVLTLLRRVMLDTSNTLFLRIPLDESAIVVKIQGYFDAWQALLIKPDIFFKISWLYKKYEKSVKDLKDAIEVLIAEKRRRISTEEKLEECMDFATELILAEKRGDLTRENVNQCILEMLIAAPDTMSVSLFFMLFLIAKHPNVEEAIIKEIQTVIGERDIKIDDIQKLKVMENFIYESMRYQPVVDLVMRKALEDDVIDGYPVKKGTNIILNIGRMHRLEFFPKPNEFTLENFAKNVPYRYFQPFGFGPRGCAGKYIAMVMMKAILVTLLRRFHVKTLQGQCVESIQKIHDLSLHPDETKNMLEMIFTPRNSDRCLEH
Assay: aromatase (CYP19) inhibition assay, fluorometric substrate dibenzylfluorescein (DBF)
Assay type: biochemical
Conditions: recombinant human aromatase (baculovirus/insect cell expressed), test compounds 2×10^−5 to 10^−9 M, 37° C. for 30 minutes
Description: Compounds of the invention were evaluated for inhibiting aromatase enzyme using the following aromatase (CYP19) inhibition assay which detects aromatase inhibitors utilizing recombinant human aromatase (baculovirus/insect cell expressed) and the fluorometric substrate dibenzylfluorescein (DBF). Aromatase will metabolize DBF to fluorescein which will give the fluorescent signal. The assay is conducted in 96-well black, Falcon plate (BD Biosciences, Cat. No. 353241) in the total volume of 100 μL per well. 40 μL of the Cofactor/Dilution buffer (1) is added to the plate followed by 10 μL of serially diluted test compounds in duplicates for final concentration of 2×10^−5 to 10^−9 M, or 10 μL of phosphate buffer for positive and background control wells. After 10 minutes of preincubation at 37° C., the reaction is initiated by adding 50 μL of prewarmed Enzyme/Substrate Mix (2) to the test compound wells, and positive control wells (maximum activity of CYP19, which represents 100%). The plate is incubated at 37° C. for 30 minutes. To stop the reaction, 37.5 μL of 2 N NaOH is added to all wells. For background controls, 50 μL of Enzyme/Substrate Mix (2) are added into background control wells. The plate is left at 37° C. incubator for 2 hours to develop adequate signal to background ratio. Fluorescence per well is measured in the fluorescent plate reader. The metabolite concentration is measured using excitation wavelength of 485 nm and emission wavelength of 538 nm. Inhibition of aromatase by test compounds is expressed in percentage relative to positive controls. IC50 values for the test compounds are derived from non-liner curve fitting. • (1) Cofactor/Dilution buffer: 50 mM phosphate buffer, pH=7.4; 1× NADPH regenerating system A (20× stock, GENTEST, Cat. No. 451220); 1× NAPDH regenerating system B (100× stock, GENTEST, Cat. No. 451200) and 0.2 mg/mL control protein (Insect Cell Control Supersomes, GENTEST, Cat. No. 456200) • (2) Enzyme/Substrate Mix: 50 mM phosphate buffer, pH=7.4, 0.02 nmole/mL human aromatase protein (Human CYP19+P450 Reductase Supersomes, GENTEST, Cat. No. 456260); 0.4 μM dibenzylfluorescein (DBF, GENTEST, Cat. No. 451750, prepared at 2 mM concentration in acetonitrile); 0.5 mg/mL control protein (Insect Cell Control Supersomes, GENTEST, Cat. No. 456200).

aromatase inhibition | SMILES
showed aromatase inhibition | CC(C)C(O)(Cc1cc2ccncc2[nH]1)CC(C)(C)c1cc(Cl)cc2c1OCC2 (centres unmarked) [5-(5-Chloro-2,3-dihydrobenzofuran-7-yl)-2,5-dimethyl-3-(1H-pyrrolo[2,3-c]pyridin-2-ylmethyl)hexan-3-ol]
showed aromatase inhibition | COc1ccc(F)cc1C(C)(C)CC(O)(Cc1cc2cnccc2[nH]1)C(C)C (centres unmarked) [5-(5-Fluoro-2-methoxyphenyl)-2,5-dimethyl-3-(1H-pyrrolo[3,2-c]pyridin-2-ylmethyl)hexan-3-ol]
